Laboratory results as given in patent US20240101521A1, “DIAMINOTRIAZINE COMPOUNDS” (BASF SE, priority 2021, published 2024).

Experiments:
Experiment in all cases: greenhouse pre-emergence herbicidal test
Format in all cases: in vivo
Alopecurus myosuroides = details: scale 0 to 100
Text: (§1) The culture containers used were plastic flowerpots containing loamy sand with approximately 3.0% of humus as the substrate. The seeds of the test plants were sown separately for each species.
(§2) For the pre-emergence treatment, the active ingredients, which had been suspended or emulsified in water, were applied directly after sowing by means of finely distributing nozzles. The containers were irrigated gently to promote germination and growth and subsequently covered with transparent plastic hoods until the plants had rooted. This cover caused uniform germination of the test plants, unless this had been impaired by the active ingredients. For the post-emergence treatment, the test plants were first grown to a height of 3 to 15 cm, depending on the plant habit, and only then treated with the active ingredients which had been suspended or emulsified in water. For this purpose, the test plants were either sown directly and grown in the same containers, or they were first grown separately as seedlings and transplanted into the test containers a few days prior to treatment.
(§3) Depending on the species, the plants were kept at 10-25° C. or 20-35° C., respectively.
(§4) The test period extended over 2 to 4 weeks. During this time, the plants were tended, and their response to the individual treatments was evaluated.
(§5) Evaluation was carried out using a scale from 0 to 100. 100 means no emergence of the plants, or complete destruction of at least the aerial moieties, and 0 means no damage, or normal course of growth. A moderate herbicidal activity is given at values of at least 60, a good herbicidal activity is given at values of at least 70, and a very good herbicidal activity is given at values of at least 85.
(§6) The plants used in the greenhouse experiments were of the following species: […]

Amaranthus retroflexus = details: scale 0 to 100
Text: as §1, §2, §3, §4, §5, §6

Setaria faberi = details: scale 0 to 100
Text: as §1, §2, §3, §4, §5, §6

Echinochloa crus-galli = details: scale 0 to 100
Text: as §1, §2, §3, §4, §5, §6

Abutilon theophrasti = details: pre-emergence, 62,5 g/ha, scale 0 to 100
Text: as §1, §2, §3, §4, §5, §6

Lolium multiflorum = details: pre-emergence, 62,5 g/ha, scale 0 to 100
Text: as §1, §2, §3, §4, §5, §6

Row | Compound | herbicidal activity (Lolium multiflorum) [%] | herbicidal activity (Alopecurus myosuroides; pre-emergence, 62,5 g/ha) [%] | herbicidal activity (Amaranthus retroflexus; pre-emergence, 62,5 g/ha) [%] | herbicidal activity (Setaria faberi; pre-emergence, 62,5 g/ha) [%] | other results
1 | COc1c(Cl)cc(Cl)c(F)c1Nc1nc(N)nc(C(C)F)n1 (stereo not drawn) [Example 63] | – | – | – | – | herbicidal activity (Alopecurus myosuroides; pre-emergence, 31 g/ha): 80%; herbicidal activity (Amaranthus retroflexus; pre-emergence, 31 g/ha): 80%; herbicidal activity (Setaria faberi; pre-emergence, 31 g/ha): 100%
2 | C#CC(C)Oc1c(Br)cc(F)c(F)c1Nc1nc(N)nc(C2(F)CCCC2)n1 (stereo not drawn) [Example 97] | – | – | – | – | herbicidal activity (Alopecurus myosuroides; pre-emergence, 62 g/ha): 70%; herbicidal activity (Amaranthus retroflexus; pre-emergence, 62 g/ha): 85%; herbicidal activity (Setaria faberi; pre-emergence, 62 g/ha): 85%
3 | CC#CC(C)Oc1c(Cl)cc(F)c(F)c1Nc1nc(N)nc(C(C)(C)F)n1 (stereo not drawn) [Example 98] | – | – | – | – | herbicidal activity (Alopecurus myosuroides; pre-emergence, 62 g/ha): 100%; herbicidal activity (Amaranthus retroflexus; pre-emergence, 62 g/ha): 100%; herbicidal activity (Setaria faberi; pre-emergence, 62 g/ha): 100%
4 | CC#CC(C)Oc1c(Cl)cc(F)c(F)c1Nc1nc(N)nc(C2(F)CCCC2)n1 (stereo not drawn) [Example 100] | – | – | – | – | herbicidal activity (Alopecurus myosuroides; pre-emergence, 62 g/ha): 98%; herbicidal activity (Echinochloa crus-galli; pre-emergence, 62 g/ha): 100%; herbicidal activity (Setaria faberi; pre-emergence, 62 g/ha): 100%
5 | CC#CC(C)Oc1c(F)cc(F)c(F)c1Nc1nc(N)nc(C2(F)CCCC2)n1 (stereo not drawn) [Example 104] | 100 | – | – | – | herbicidal activity (Abutilon theophrasti): 100%; herbicidal activity (Echinochloa crus-galli; pre-emergence, 62,5 g/ha): 100%
6 | C#CC(C)(F)c1nc(N)nc(Nc2c(F)c(F)cc(Br)c2OC)n1 (stereo not drawn) [Example 115] | – | 98 | 100 | – | herbicidal activity (Abutilon theophrasti): 90%
7 | CCC(C)(F)c1nc(N)nc(Nc2c(F)c(F)cc(Cl)c2OC)n1 (stereo not drawn) [Example 116] | – | 100 | 100 | – | herbicidal activity (Abutilon theophrasti): 100%
8 | CC#CC(Oc1c(F)cc(F)c(F)c1Nc1nc(N)nc(C(C)(C)F)n1)C1CC1 (stereo not drawn) [Example 119] | 70 | – | 85 | 85 | –
9 | COc1c(Br)cc(F)c(F)c1Nc1nc(N)nc(C(C)F)n1 (stereo not drawn) [Example 120] | – | – | 100 | – | herbicidal activity (Abutilon theophrasti): 100%; herbicidal activity (Echinochloa crus-galli; pre-emergence, 62,5 g/ha): 100%
10 | COc1c(Br)cc(F)c(F)c1Nc1nc(N)nc(C(C)(F)CBr)n1 (stereo not drawn) [Example 123] | – | 100 | 100 | 100 | –
11 | CC(C)(F)c1nc(N)nc(Nc2c(F)c(F)cc(Br)c2OC/C=C/Cl)n1 [Example 124] | 80 | – | 100 | 100 | –
12 | CC(C)(F)c1nc(N)nc(Nc2c(F)c(F)cc(Cl)c2OC/C=C/Br)n1 [Example 125] | 100 | – | 100 | 100 | –
13 | CC(C)(F)c1nc(N)nc(Nc2c(F)c(F)cc(F)c2OC/C=C/Cl)n1 [Example 126] | 100 | – | 100 | 100 | –
14 | CC(C)(F)c1nc(N)nc(Nc2c(F)c(F)cc(F)c2OC/C=C/Br)n1 [Example 127] | 100 | – | 100 | 100 | –
15 | C#CCOc1c(Cl)cc(F)c(F)c1Nc1nc(N)nc(C2(F)CCCC2)n1 [Example 129] | 90 | – | 95 | 100 | –
16 | COc1c(Cl)c(F)c(F)c(F)c1Nc1nc(N)nc(C(C)(C)F)n1 [Example 148] | 100 | 100 | 100 | – | –
17 | COc1c(Br)c(F)c(F)c(F)c1Nc1nc(N)nc(C(C)(C)F)n1 [Example 164] | – | 100 | 100 | 100 | –
18 | COc1c(C)c(F)c(F)c(F)c1Nc1nc(N)nc(C(C)(C)F)n1 [Example 169] | – | 100 | 100 | – | herbicidal activity (Echinochloa crus-galli; pre-emergence, 62,5 g/ha): 100%
19 | C=CC(C)(F)c1nc(N)nc(Nc2c(F)c(F)c(F)c(Cl)c2OC)n1 (stereo not drawn) [Example 173] | – | 100 | 100 | 95 | –
20 | COc1c(Cl)c(F)c(F)c(F)c1Nc1nc(N)nc(C(C)(C)OC)n1 [Example 174] | 100 | 98 | 100 | – | –
